Read-outs that look alike come from different tables or passages of the source.
Molecular target: cGAS (Homo sapiens, UniProt Q8N884)
Assay: cGAS enzymatic assay (FP/TR-FRET detection of cGAMP)
Type: biochemical
Design: The cGAS assay was used to screen 100,000 compounds with full-length human cGAS; 6xHis; made in house
Conditions: cGAS (30 nM)
Method: Some exemplary compounds of the disclosure were tested for inhibition of cGAS (30 nM). The results are provided in Table 1 where “A” indicates an IC50 of less than 100 nM, “B” indicates an IC50 of greater than 100 nM and less than 500 nM, “C” indicates an IC50 of greater than 500 nM and less than 1 μM, “D” indicates an IC50 of greater than 1 μM and less than 10 μM, and “E” indicates an IC50 of greater than 10 μM.
A homogenous cGAS enzymatic assay was developed with fluorescence polarization (FP) and time-resolved Forster resonance energy transfer (TR-FRET) readouts (FIG. 2A-2D). The cGAS assay was used to screen 100,000 compounds with full-length human cGAS (FIG. 2E), resulting in the identification of the novel chemotype of the disclosure, two of which are further developed in a structure-driven hit-to-lead study (Table 3, below). The assay performance was robust, as indicated by respective Z and Z′ values of 0.59 and 0.63 in the screen; compounds with polarization values greater than three SDs from the mean were considered hits; a scatterplot from 10 plates (3,200 compounds) is shown in FIG. 2D.
Biochemical and biophysical analysis: Potency and MOA studies, including Mn^2+ sensitivity, are performed using the cGAS enzymatic assay. Dose response experiments are used to determine IC50 values under basal conditions (5 mM MgCl2, 100 μM ATP/GTP), and with the addition of physiological levels of Mn (0.2 mM) using human and mouse cGAS. Ligand optimization is driven by potency with the human enzyme; potency with mouse cGAS informs selection of an appropriate disease model for efficacy studies. Competition with ATP and GTP is assessed by comparing basal IC50 values to those in the presence of saturating ATP or GTP, and subsequently confirmed by measuring velocity vs. substrate at varying ATP or GTP levels. Inhibitor residence times (1/koff) are used as a key parameter for prioritizing compounds and driving SAR, because a longer residence time often results from an allosteric mechanism, and can also correlate with improved cellular activity. The cGAS enzymatic assay is used with the jump dilution method to measure residence times (inhibitor dissociation rates), as described for kinases using the very similar ADP assay. Biophysical methods, including SPR and TSA, are used as orthologous methods for residence time measurements and kd estimates.

[1] = with Mn^2+, read-out: Inhibition cGAS + Mn^2+

Sequence of cGAS (Q8N884 whole entry): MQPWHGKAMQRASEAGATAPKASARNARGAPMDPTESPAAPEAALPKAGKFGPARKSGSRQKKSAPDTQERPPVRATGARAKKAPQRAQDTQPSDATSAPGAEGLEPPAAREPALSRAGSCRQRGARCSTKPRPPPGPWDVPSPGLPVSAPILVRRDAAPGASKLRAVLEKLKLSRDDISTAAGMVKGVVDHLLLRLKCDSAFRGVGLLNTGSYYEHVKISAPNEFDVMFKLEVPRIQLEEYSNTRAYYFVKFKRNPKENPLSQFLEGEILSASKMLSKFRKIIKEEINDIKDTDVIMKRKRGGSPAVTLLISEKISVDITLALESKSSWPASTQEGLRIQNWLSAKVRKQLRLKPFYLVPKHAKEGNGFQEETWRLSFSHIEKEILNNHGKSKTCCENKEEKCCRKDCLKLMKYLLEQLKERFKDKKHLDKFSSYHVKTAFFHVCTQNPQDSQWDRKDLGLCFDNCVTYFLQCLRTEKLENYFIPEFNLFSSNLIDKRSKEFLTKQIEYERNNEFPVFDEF

Compound Cc1nc(NCC(=O)O)c2oc3ccccc3c2n1 [Compound 2, (2-methylbenzofuro[3,2-d]pyrimidin-4-yl)glycine] has an IC50 [1] of over 10000 nM and an IC50 (read-out: Inhibition cGAS) of 1000 to 10000 nM.
Compound Cc1nc(N2C[C@@H](NC(=O)C(C)(C)c3cn[nH]c3)C[C@H]2C(=O)O)c2oc3cc(F)ccc3c2n1 [Compound 57, (2S,4S)-1-(7-fluoro-2-methylbenzofuro[3,2-d]pyrimidin-4-yl)-4-(2-methyl-2-(1H-pyrazol-4-yl)propanamido)pyrrolidine-2-carboxylic acid] has an IC50 [1] of 1000 to 10000 nM and an IC50 (read-out: Inhibition cGAS) of 100 to 500 nM.
Cc1nc(N2C[C@@H](Nc3n[nH]cc3-c3ccccn3)C[C@H]2C(=O)O)c2oc3ccccc3c2n1 [Compound 63, (2S,4S)-1-(2-methylbenzofuro[3,2-d]pyrimidin-4-yl)-4-((4-(pyridin-2-yl)-1H-pyrazol-3-yl)amino)pyrrolidine-2-carboxylic acid] was tested, and the IC50 [1] was 1000 to 10000 nM and the IC50 (read-out: Inhibition cGAS) was 1000 to 10000 nM.
In the case of Cc1nc(N2C[C@@H](Nc3n[nH]cc3-c3ccccc3)C[C@H]2C(=O)O)c2oc3ccccc3c2n1 [Compound 41], the IC50 (read-out: Inhibition cGAS) is reported as 500 to 1000 nM.
Work on O=C(O)CNc1nc(-c2ccccc2)nc2c1oc1ccccc12 [Compound 5, (2-phenylbenzofuro[3,2-d]pyrimidin-4-yl)glycine] yielded an IC50 [1] of over 10000 nM and an IC50 (read-out: Inhibition cGAS) of 1000 to 10000 nM.
Compound Cc1nc(N2C[C@@H](Cc3nn[nH]n3)C[C@H]2C(=O)O)c2oc3ccccc3c2n1 [Compound 25, (2S,4R)-4-((1H-tetrazol-5-yl)methyl)-1-(2-methylbenzofuro[3,2-d]pyrimidin-4-yl)pyrrolidine-2-carboxylic acid] has an IC50 (read-out: Inhibition cGAS) of under 100 nM.
For COc1nc(N2CCC[C@H]2C(=O)O)c2oc3ccccc3c2n1 [Compound 20, (2-methoxybenzofuro[3,2-d]pyrimidin-4-yl)-L-proline], the IC50 [1] was 1000 to 10000 nM and the IC50 (read-out: Inhibition cGAS) was 500 to 1000 nM.
Cc1nc(N2C[C@@H](CC(N)=O)C[C@H]2C(=O)O)c2oc3ccccc3c2n1 [Compound 45, (2S,4R)-4-(2-amino-2-oxoethyl)-1-(2-methylbenzofuro[3,2-d]pyrimidin-4-yl)pyrrolidine-2-carboxylic acid] gave an IC50 (read-out: Inhibition cGAS) of 500 to 1000 nM.
Work on CCc1nc(N2CC[C@H]2C(=O)O)c2oc3ccccc3c2n1 [Compound 19, (S)-1-(2-ethylbenzofuro[3,2-d]pyrimidin-4-yl)azetidine-2-carboxylic acid] yielded an IC50 [1] of 1000 to 10000 nM and an IC50 (read-out: Inhibition cGAS) of 1000 to 10000 nM.
With Cc1nc(N2C[C@@H](CC(=O)Nc3ccccn3)C[C@H]2C(=O)O)c2oc3ccccc3c2n1 [Compound 46, (2S,4R)-1-(2-methylbenzofuro[3,2-d]pyrimidin-4-yl)-4-(2-oxo-2-(pyridin-2-ylamino)ethyl)pyrrolidine-2-carboxylic acid] the IC50 (read-out: Inhibition cGAS) was 1000 to 10000 nM.
For Cc1nc(N2C[C@@H](NC(=O)C(C)(C)c3ccncc3)C[C@H]2C(=O)O)c2oc3ccccc3c2n1 [Compound 29, (2S,4S)-4-(2-methyl-2-(pyridin-4-yl)propanamido)-1-(2-methylbenzofuro[3,2-d]pyrimidin-4-yl)pyrrolidine-2-carboxylic acid], the IC50 (read-out: Inhibition cGAS) was 100 to 500 nM.
In the case of Cc1nc(N2C[C@@H](NC(=O)[C@H]3CN3)C[C@H]2C(=O)O)c2oc3ccccc3c2n1 [Compound 44, (2S,4S)-4-((R)-aziridine-2-carboxamido)-1-(2-methylbenzofuro[3,2-d]pyrimidin-4-yl)pyrrolidine-2-carboxylic acid], the IC50 (read-out: Inhibition cGAS) is reported as 1000 to 10000 nM.
Compound O=C(O)C1CCCN(c2ncnc3c2oc2ccccc23)C1 (centres unmarked) [Compound 6, 1-(benzofuro[3,2-d]pyrimidin-4-yl)piperidine-3-carboxylic acid] has an IC50 [1] of over 10000 nM and an IC50 (read-out: Inhibition cGAS) of over 10000 nM.
In the case of Cc1nc(N2C[C@@H](N(C)C(=O)Cc3ccncc3)C[C@H]2C(=O)O)c2oc3ccccc3c2n1 [Compound 60, (2S,4S)-4-(N-methyl-2-(pyridin-4-yl)acetamido)-1-(2-methylbenzofuro[3,2-d]pyrimidin-4-yl)pyrrolidine-2-carboxylic acid], the IC50 (read-out: Inhibition cGAS) is reported as 500 to 1000 nM.
O=C(O)[C@@H]1CCCN1c1nc(C2CCCC2)nc2c1oc1ccccc12 [Compound 12, (2-cyclopentylbenzofuro[3,2-d]pyrimidin-4-yl)-L-proline] showed an IC50 [1] of over 10000 nM and an IC50 (read-out: Inhibition cGAS) of over 10000 nM.
CCc1nc(N(C)[C@@H](C)C(=O)O)c2oc3ccccc3c2n1 [Compound 17, N-(2-ethylbenzofuro[3,2-d]pyrimidin-4-yl)-N-methyl-L-alanine] gave an IC50 [1] of over 10000 nM and an IC50 (read-out: Inhibition cGAS) of 1000 to 10000 nM.
O=C(O)[C@@H]1CCCN1c1nc(-c2ccccc2)nc2c1oc1ccccc12 [Compound 13, (2-phenylbenzofuro[3,2-d]pyrimidin-4-yl)-L-proline] was tested, and the IC50 [1] was over 10000 nM and the IC50 (read-out: Inhibition cGAS) was over 10000 nM.
Work on Cc1nc(N2C[C@@H](NC(=O)Cc3c[nH]cn3)C[C@H]2C(=O)O)c2oc3ccccc3c2n1 [Compound 40, (2S,4S)-4-(2-(1H-imidazol-4-yl)acetamido)-1-(2-methylbenzofuro[3,2-d]pyrimidin-4-yl)pyrrolidine-2-carboxylic acid] yielded an IC50 (read-out: Inhibition cGAS) of 500 to 1000 nM.
For Cc1nc(N2C[C@@H](NC(=O)Cc3cc[nH]n3)C[C@H]2C(=O)O)c2oc3ccccc3c2n1 [Compound 31, (2S,4S)-4-(2-(1H-pyrazol-3-yl)acetamido)-1-(2-methylbenzofuro[3,2-d]pyrimidin-4-yl)pyrrolidine-2-carboxylic acid], the “Inhibition cGAS” value was “B, D”.
In the case of Cc1nc(N2C[C@@H](NC(N)=O)C[C@H]2C(=O)O)c2oc3ccccc3c2n1 [Compound 43, (2S,4S)-1-(2-methylbenzofuro[3,2-d]pyrimidin-4-yl)-4-ureidopyrrolidine-2-carboxylic acid], the IC50 (read-out: Inhibition cGAS) is reported as 1000 to 10000 nM.
For Cc1nc(N2C[C@@H](Nc3n[nH]cc3-c3ccccc3)CC2C(=O)O)c2oc3cc(F)ccc3c2n1 (stereo in doubt) [Compound 56, (2R,4S)-1-(7-fluoro-2-methylbenzofuro[3,2-d]pyrimidin-4-yl)-4-((4-phenyl-1H-pyrazol-3-yl)amino)pyrrolidine-2-carboxylic acid], the IC50 [1] was 1000 to 10000 nM and the IC50 (read-out: Inhibition cGAS) was 500 to 1000 nM.
CNC(=O)C[C@H]1C[C@@H](C(=O)O)N(c2nc(C)nc3c2oc2ccccc23)C1 [Compound 35, (2S,4R)-4-(2-(methylamino)-2-oxoethyl)-1-(2-methylbenzofuro[3,2-d]pyrimidin-4-yl)pyrrolidine-2-carboxylic acid] was tested, and the IC50 (read-out: Inhibition cGAS) was 500 to 1000 nM.
Compound Cc1nc(N2C[C@@H](NC(=O)Cc3ccc(N)nc3)C[C@H]2C(=O)O)c2oc3ccccc3c2n1 [Compound 33, (2S,4S)-4-(2-(6-aminopyridin-3-yl)acetamido)-1-(2-methylbenzofuro[3,2-d]pyrimidin-4-yl)pyrrolidine-2-carboxylic acid] has an IC50 (read-out: Inhibition cGAS) of 100 to 500 nM.
Work on Cc1nc(N2C[C@@H](Nc3n[nH]cc3C)C[C@H]2C(=O)O)c2oc3ccccc3c2n1 [Compound 27, (2S,4S)-4-((4-methyl-1H-pyrazol-3-yl)amino)-1-(2-methylbenzofuro[3,2-d]pyrimidin-4-yl)pyrrolidine-2-carboxylic acid] yielded an IC50 (read-out: Inhibition cGAS) of 100 to 500 nM.
In the case of O=C(O)[C@@H]1CCCN1c1nc(C2CCCCC2)nc2c1oc1ccccc12 [Compound 10, (2-cyclohexylbenzofuro[3,2-d]pyrimidin-4-yl)-L-proline], the IC50 [1] is reported as over 10000 nM and the IC50 (read-out: Inhibition cGAS) is reported as over 10000 nM.
For Cc1nc(N2C[C@@H](Nc3cc[nH]n3)C[C@H]2C(=O)O)c2oc3ccccc3c2n1 [Compound 26, (2S,4S)-4-((1H-pyrazol-3-yl)amino)-1-(2-methylbenzofuro[3,2-d]pyrimidin-4-yl)pyrrolidine-2-carboxylic acid], the IC50 (read-out: Inhibition cGAS) was 100 to 500 nM.
Compound CCc1nc(N(C)CC(=O)O)c2oc3ccccc3c2n1 [Compound 16, N-(2-ethylbenzofuro[3,2-d]pyrimidin-4-yl)-N-methylglycine] has an IC50 [1] of 1000 to 10000 nM and an IC50 (read-out: Inhibition cGAS) of 1000 to 10000 nM.
In the case of Cc1nc(N2CCC[C@H]2C(=O)O)c2oc3cc(F)ccc3c2n1 [Compound 69, (7-fluoro-2-methylbenzofuro[3,2-d]pyrimidin-4-yl)-L-proline], the IC50 [1] is reported as 1000 to 10000 nM and the IC50 (read-out: Inhibition cGAS) is reported as 500 to 1000 nM.
For Cc1nc(N2C[C@@H](NC(=O)Cc3cccnc3N)C[C@H]2C(=O)O)c2oc3ccccc3c2n1 [Compound 49, (2S,4S)-4-(2-(2-aminopyridin-3-yl)acetamido)-1-(2-methylbenzofuro[3,2-d]pyrimidin-4-yl)pyrrolidine-2-carboxylic acid], the IC50 (read-out: Inhibition cGAS) was 500 to 1000 nM.
Cc1nc(N2CC[C@H]2C(=O)O)c2oc3ccccc3c2n1 [Compound 68, (S)-1-(2-methylbenzofuro[3,2-d]pyrimidin-4-yl)azetidine-2-carboxylic acid] was tested, and the IC50 [1] was 1000 to 10000 nM and the IC50 (read-out: Inhibition cGAS) was 500 to 1000 nM.
CO[C@H]1C[C@@H](C(=O)O)N(c2nc(C)nc3c2oc2ccccc23)C1 [Compound 23, (2S,4S)-4-methoxy-1-(2-methylbenzofuro[3,2-d]pyrimidin-4-yl)pyrrolidine-2-carboxylic acid] was tested, and the IC50 [1] was over 10000 nM and the IC50 (read-out: Inhibition cGAS) was 1000 to 10000 nM.
